# In a polymer gas permeability compilation:
SMILES,CH4 permeability,CO2 permeability,N2 permeability,O2 permeability,H2 permeability
*OC(=O)Oc1c(C)cc(C(C)(C)c2cc(C)c(*)c(C)c2)cc1C (repeat unit),0.955 Barrer,19.6 Barrer,1.07 Barrer,5.54 Barrer,
*CC(*)c1ccc(OC(C)=O)cc1 (repeat unit),0.99 Barrer,16.3 Barrer,0.64 Barrer,3.1 Barrer,
*c1c(C)cc(C)c(N2C(=O)c3ccc(-c4ccc5c(c4)C(=O)N(*)C5=O)cc3C2=O)c1C (repeat unit),8 Barrer,182 Barrer,7.5 Barrer,32 Barrer,210 Barrer
*Oc1ccc(C(=O)c2cccc(-c3cccc(C(=O)c4ccc(Oc5ccc(C(c6ccc(*)cc6)(C(F)(F)F)C(F)(F)F)cc5)cc4)c3)c2)cc1 (repeat unit),0.058 Barrer,1.95 Barrer,0.0792 Barrer,0.61 Barrer,
*c1c(C)cc(C)c(N2C(=O)c3ccc(Sc4ccc5c(c4)C(=O)N(*)C5=O)cc3C2=O)c1C (repeat unit),,,1.62 Barrer,8.2 Barrer,68.6 Barrer
*c1cccc(S(=O)(=O)c2cccc(N3C(=O)c4ccc(C(c5ccc6c(c5)C(=O)N(*)C6=O)(C(F)(F)F)C(F)(F)F)cc4C3=O)c2)c1 (repeat unit),0.0578 Barrer,2.34 Barrer,0.095 Barrer,0.73 Barrer,
*C(=O)c1ccc(C(c2ccc3c(c2)C(=O)n2c-3nc3cc4nc(*)n(*)c4cc32)(C(F)(F)F)C(F)(F)F)cc1* (repeat unit),0.911 Barrer,54 Barrer,2.58 Barrer,15.2 Barrer,
*Oc1ccc(C(C)(C)c2ccc(OC(=O)c3cc(C(*)=O)cc(C(C)(C)C)c3)cc2)cc1 (repeat unit),1.43 Barrer,24.2 Barrer,1.18 Barrer,5.95 Barrer,41.9 Barrer
*c1ccc(Cc2ccc(N3C(=O)c4ccc(Oc5ccc(Oc6ccc7c(c6)C(=O)N(*)C7=O)cc5)cc4C3=O)cc2)cc1 (repeat unit),0.0222 Barrer,1.22 Barrer,0.0357 Barrer,0.242 Barrer,5.08 Barrer
*Oc1ccc2nc(-c3ccccc3)c(-c3ccc(-c4nc5cc(*)ccc5nc4-c4ccccc4)cc3)nc2c1 (repeat unit),,,,,17.2 Barrer
*Oc1ccc(C(C)(C)c2ccc(Oc3ccc4c(c3)C(=O)N(c3cccc(N5C(=O)c6ccc(*)cc6C5=O)c3)C4=O)cc2)cc1 (repeat unit),0.0356 Barrer,1.3 Barrer,0.0526 Barrer,0.4 Barrer,
*CCCC* (repeat unit),13 Barrer,48.4 Barrer,4 Barrer,11.3 Barrer,
*c1ccc2c(c1)nc1n2C(=O)c2ccc(C(=O)Oc3ccc(C(c4ccc(OC(=O)c5ccc6c(c5)C(=O)n5c-6nc6ccc(*)cc65)cc4)(C(F)(F)F)C(F)(F)F)cc3)cc2-1 (repeat unit),,,0.155 Barrer,0.977 Barrer,13.3 Barrer
*c1c(C)c(C)c(N2C(=O)c3ccc(Oc4cc(C)c(Oc5ccc6c(c5)C(=O)N(*)C6=O)c(C)c4C)cc3C2=O)c(C)c1C (repeat unit),7.6 Barrer,200 Barrer,8.1 Barrer,33 Barrer,230 Barrer
*Oc1ccc(Oc2ccc(C(=O)c3ccc(*)cc3)cc2)c(-c2cc(C)cc(C)c2)c1 (repeat unit),0.05 Barrer,1.6 Barrer,0.053 Barrer,0.33 Barrer,4.6 Barrer
*Oc1c(C)cc(-c2cc(C)c(Oc3ccc(S(=O)(=O)c4ccc(*)cc4)cc3)c(C)c2C)c(C)c1C (repeat unit),0.94 Barrer,25.5 Barrer,1.2 Barrer,6 Barrer,63 Barrer
*[Si](C)(C)CCCCCCCC[Si](*)(C)C (repeat unit),,,76.2 Barrer,188 Barrer,
*CC1CC(*)OCO1 (repeat unit),,,0.018 Barrer,0.024 Barrer,0.93 Barrer
*CC(*)OC1CC2CC1C1CCCC21 (repeat unit),,12.6 Barrer,1.2 Barrer,3.06 Barrer,
*c1cccc(N2C(=O)c3ccc(Oc4ccc5c(c4)C(=O)N(*)C5=O)cc3C2=O)c1 (repeat unit),0.0064 Barrer,0.301 Barrer,0.012 Barrer,0.081 Barrer,
*Oc1c(Br)cc(C(c2cc(Br)c(OC(=O)c3cccc(C(*)=O)c3)c(Br)c2)(C(F)(F)F)C(F)(F)F)cc1Br (repeat unit),0.597 Barrer,35.6 Barrer,1.07 Barrer,6.75 Barrer,65 Barrer
*c1c(C)cc(Cc2cc(C)c(-n3c(=O)c4cc5c(=O)n(*)c(=O)c5cc4c3=O)c(C)c2)cc1C (repeat unit),8.21 Barrer,97.6 Barrer,7.08 Barrer,27.4 Barrer,
*O[Si](C)(C)c1cccc([Si](*)(C)C)c1 (repeat unit),106 Barrer,518 Barrer,,74 Barrer,
